Test results taken from US20120177693A1, “DEEP LUNG PULMONARY DELIVERY OF TREPROSTINIL” (Aradigm Corporation, priority 2008, published 2012).

Assay: Venous plasma pharmacokinetics of inhaled treprostinil via AERx Essence or Nebu-Tec Optineb, 14 healthy male subjects
Details: for Dose-normalised AUCI / Dose-normalised AUCT / Dose-normalised Cmax: dose-normalised for the calculated dose to lung (μg); for AUCINF_obs_D (dose normalised AUCI) / AUClast_D (dose normalised AUCT) / Cmax_D (dose normalised Cmax): normalised for dose to lung
Experimental: On each of two dosing days, eligible subjects underwent dosing with ^99mTc-labeled treprostinil sodium using either the AERx Essence System or the Nebu-Tec Optineb nebulizer. Following their initial study dose, subjects underwent a washout period of approximately 48 hours before completing a second (crossover) study dose.
Immediately following each study dose, subjects underwent gamma scintigraphy and multiple samplings of venous blood to characterize treprostinil lung deposition and plasma pharmacokinetics.
To evaluate treprostinil plasma pharmacokinetics, 16 venous blood samples were drawn into 7.5 ml Potassium EDTA monovette tubes following each study dose (i.e., Essence and Optineb). Sampling occurred approximately 1 hour prior to dosing and at +2, +3, +5, +7, +10, +15, +20, +30, +60, +90, +120, +180, +240, +300, and +360 minutes after the start of each study dose. Thus, a total of 32 blood samples (˜250 mL) were collected for pharmacokinetic assessment over the two dosing days. Immediately upon sampling the sample was identified with a bar coded label bearing details of study number, subject number, sampling time point, sample type and a unique 9 digit identification number. The sample was separated by centrifugation at 1500×g and 4° C. for 10 minutes. Two equal aliquots of plasma/serum were transferred to 2 polypropylene tubes labelled identically to the original blood sample and stored at approximately −20° C. pending analysis. The time at which samples were taken, received into the separating room and placed in the freezer was recorded in the study documentation.
The pharmacokinetic parameters Cmax, AUCT and AUCI were normalised for the dose delivered to the lung, as determined from the scintigraphy data (Tables 14.2.1.5 & 14.2.1.6).

[1] = dose-normalised for the calculated dose to lung
[2] = via Nebu-Tec, Geometric LS means

## CCCCC[C@H](O)CC[C@@H]1[C@H]2Cc3cccc(OCC(=O)[O-])c3C[C@H]2C[C@H]1O.[Na+] [treprostinil, (1R,2R,3aS,9aS)-[[2,3,3a,4,9,9a-Hexahydro-2-hydroxyl-1-[(3S)-3-hydroxyoctyl]-1H-benz[f]inden-5-yl]oxy]acetic acid monosodium salt]
Wilcoxon Matched Pairs Test
  Tmax, Median Diff. AERx vs Nebu-Tec: 11.5 min
[1]
  Dose-normalised AUCI, AERx/Nebu-Tec Ratio of geometric LS means: 101.79%
  Dose-normalised AUCT, AERx/Nebu-Tec Ratio of geometric LS means: 103.24%
dose-normalised for the calculated dose to lung, monosodium salt
  Dose-normalised Cmax, AERx/Nebu-Tec Ratio of geometric LS means: 61.51%
human, plasma, inhaled, Tmax, one subject in the nebulizer arm with delayed Tmax
  Tmax: ~20 min
male, human, plasma, inhaled, 19.58 μg
  AUC: 0.53 ng·h/mL
male, human, plasma, inhaled, 19.58 μg, AUCINF—obs, via Optineb, GM
  AUC(0-inf): 0.533 ng·h/mL
male, human, plasma, inhaled, 19.58 μg, AUCINF—obs, via Optineb, Median
  AUC(0-inf): 0.546 ng·h/mL
male, human, plasma, inhaled, 19.58 μg, AUCT, via Nebu-Tec, Geometric LS means
  AUC(0-t): 0.51 ng·h/mL
male, human, plasma, inhaled, 19.58 μg, AUClast, via Optineb, GM
  AUC(0-t): 0.51 ng·h/mL
male, human, plasma, inhaled, 19.58 μg, AUClast, via Optineb, Median
  AUC(0-t): 0.531 ng·h/mL
male, human, plasma, inhaled, 19.58 μg, Cmax, via Nebu-Tec, Geometric LS means
  Cmax: 0.71 ng/mL
male, human, plasma, inhaled, 19.58 μg, Cmax, via Optineb, GM (geometric mean)
  Cmax: 0.707 ng/mL
male, human, plasma, inhaled, 19.58 μg, Cmax, via Optineb, Median
  Cmax: 0.696 ng/mL
male, human, plasma, inhaled, 19.58 μg, T1/2, via Optineb, GM
  half-life: 38.5 min
male, human, plasma, inhaled, 19.58 μg, T1/2, via Optineb, Median
  half-life: 37.3 min
male, human, plasma, inhaled, 19.58 μg, Tmax, via Nebu-Tec, Median
  Tmax: 8.5 min
male, human, plasma, inhaled, 19.58 μg, Tmax, via Optineb, Median
  Tmax: 8.52 min
male, human, plasma, inhaled, 26 μg, AUCINF—obs, via AERx, GM
  AUC(0-inf): 0.731 ng·h/mL
male, human, plasma, inhaled, 26 μg, AUCINF—obs, via AERx, Median
  AUC(0-inf): 0.767 ng·h/mL
male, human, plasma, inhaled, 26 μg, AUClast, via AERx, GM
  AUC(0-t): 0.709 ng·h/mL
male, human, plasma, inhaled, 26 μg, AUClast, via AERx, Median
  AUC(0-t): 0.749 ng·h/mL
male, human, plasma, inhaled, 26 μg, Cmax, via AERx, GM (geometric mean)
  Cmax: 0.586 ng/mL
male, human, plasma, inhaled, 26 μg, Cmax, via AERx, Median
  Cmax: 0.548 ng/mL
male, human, plasma, inhaled, 26 μg, T1/2, via AERx, GM
  half-life: 46.3 min
male, human, plasma, inhaled, 26 μg, T1/2, via AERx, Median
  half-life: 43.6 min
male, human, plasma, inhaled, 26 μg, Tmax, via AERx, Median
  Tmax: 25 min
male, human, plasma, inhaled, 26.07 μg
  AUC: 0.73 ng·h/mL
male, human, plasma, inhaled, 26.07 μg, AUCT, via AERx, Geometric LS means
  AUC(0-t): 0.71 ng·h/mL
male, human, plasma, inhaled, 26.07 μg, Cmax, via AERx, Geometric LS means
  Cmax: 0.59 ng/mL
male, human, plasma, inhaled, 26.07 μg, Tmax, via AERx, Median
  Tmax: 25 min
male, human, plasma, inhaled, 2 AERx strips
  Vd/F: 44 L
male, human, plasma, inhaled, 2 AERx strips, AUCINF—obs (AUCI), via AERx, Mean
  AUC(0-inf): 0.762 ng·h/mL
male, human, plasma, inhaled, 2 AERx strips, AUClast (AUCT), via AERx, Mean
  AUC(0-t): 0.742 ng·h/mL
male, human, plasma, inhaled, 2 AERx strips, Cmax, via AERx, Mean
  Cmax: 0.64 ng/mL
male, human, plasma, inhaled, 2 AERx strips, T1/2 (elimination half life), via AERx, Mean
  half-life: 52.2 min
male, human, plasma, inhaled, 2 AERx strips, Tmax, via AERx, Mean
  Tmax: 20.6 min
male, human, plasma, inhaled, 6 puffs
  Vd/F: 36 L
male, human, plasma, inhaled, 6 puffs, AUCINF—obs (AUCI), via Optineb, Mean
  AUC(0-inf): 0.553 ng·h/mL
male, human, plasma, inhaled, 6 puffs, AUClast (AUCT), via Optineb, Mean
  AUC(0-t): 0.531 ng·h/mL
male, human, plasma, inhaled, 6 puffs, Cmax, via Optineb, Mean
  Cmax: 0.762 ng/mL
male, human, plasma, inhaled, 6 puffs, T1/2 (elimination half life), via Optineb, Mean
  half-life: 40.1 min
male, human, plasma, inhaled, 6 puffs, Tmax, via Optineb, Mean
  Tmax: 8.94 min
male, human, plasma, inhaled, TMAX, via AERx Essence System, mean
  Tmax: 21 min
male, human, plasma, inhaled, TMAX, via nebulizer (Nebu-Tec OPTINEB), mean
  Tmax: 9 min
Not dose adjusted
  AUCI, AERx/Nebu-Tec Ratio of geometric LS means: 137.15%
  AUCT, AERx/Nebu-Tec Ratio of geometric LS means: 139.11%
  Cmax, AERx/Nebu-Tec Ratio of geometric LS means: 82.88%
Via AERx, GM
  Cmax_D: 0.023 ng/mL/µg
  Vz_F_obs: 38614.996 mL
Via AERx, Geometric LS means
  Dose-normalised AUCI: 0.029 ng·h/mL
  Dose-normalised AUCT: 0.028 ng·h/mL
  Dose-normalised Cmax: 0.023 ng/mL
Via AERx, Max
  AUCINF—obs: 1.205 ng·h/mL
  AUClast: 1.196 ng·h/mL
  Cmax: 1.347 ng/mL
  Cmax_D: 0.044 ng/mL/µg
  T1/2: 163.9 min
  Tmax: 30 min
  Vz_F_obs: 133550.416 mL
Via AERx, Mean
  AUCINF_obs_D (dose normalised AUCI): 0.029 ng·h/mL/µg
  AUClast_D (dose normalised AUCT): 0.028 ng·h/mL/µg
  Cmax_D (dose normalised Cmax): 0.024 ng/mL/µg
Via AERx, Median
  Cmax_D: 0.022 ng/mL/µg
  Vz_F_obs: 34319.392 mL
Via AERx, Min
  AUCINF—obs: 0.407 ng·h/mL
  AUClast: 0.375 ng·h/mL
  Cmax: 0.299 ng/mL
  Cmax_D: 0.016 ng/mL/µg
  T1/2: 28.3 min
  Tmax: 7.02 min
  Vz_F_obs: 21692.705 mL
[2]
  Dose-normalised AUCI: 0.028 ng·h/mL
  Dose-normalised AUCT: 0.027 ng·h/mL
  Dose-normalised Cmax: 0.037 ng/mL
Via Optineb, GM
  Cmax_D: 0.037 ng/mL/µg
  Vz_F_obs: 32721.114 mL
Via Optineb, Max
  AUCINF—obs: 0.852 ng·h/mL
  AUClast: 0.816 ng·h/mL
  Cmax: 1.559 ng/mL
  Cmax_D: 0.069 ng/mL/µg
  T1/2: 66.42 min
  Tmax: 20 min
  Vz_F_obs: 92051.057 mL
Via Optineb, Mean
  AUCINF_obs_D (dose normalised AUCI): 0.030 ng·h/mL/µg
  AUClast_D (dose normalised AUCT): 0.029 ng·h/mL/µg
  Cmax_D (dose normalised Cmax): 0.041 ng/mL/µg
Via Optineb, Median
  Cmax_D: 0.037 ng/mL/µg
  Vz_F_obs: 32525.036 mL
Via Optineb, Min
  AUCINF—obs: 0.360 ng·h/mL
  AUClast: 0.315 ng·h/mL
  Cmax: 0.312 ng/mL
  Cmax_D: 0.017 ng/mL/µg
  T1/2: 25.6 min
  Tmax: 4.98 min
  Vz_F_obs: 16866.083 mL
